Experiments:
[1] = Hepatic clearance assay (substrate depletion, LC-MS); conditions: both, human
In short: (§1)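 Substrate depletion at 1 μM PFAS in pooled cryopreserved human hepatocytes (~0.5 × 10^6 viable cells/mL, 50-donor pool), 37 °C with shaking, sampled 0–240 min in triplicate. Quantified by LC-MS in negative ion mode against matrix-matched calibration; media-only or heat-inactivated cells as nonmetabolic-loss controls.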

[2] = tested on: pooled primary human hepatocyte suspensions; experiment: as above; conditions: for In Vitro Clint: Table 3, 0 = no significant clearance; for Unadj Clint: unadjusted hepatic intrinsic clearance, Table S4; for Unadj Clint / in vitro CLint exp assay: pooled primary human hepatocyte suspensions; for Unadj Clint / CLint for HTTK / in vitro CLint exp assay: in µL/min/10^6 cells; for CLint for HTTK: CLint value carried into HTTK/IVIVE
In short: as §1

[3] = IVIVE: steady-state concentration (Css), generic HTTK model; design: species or system human; conditions: for Css: human steady-state concentration, 1 mg/kg/day exposure rate, loss of parent compound only; for Css (mg/L) / Css (uM): Assuming 1 mg/kg/day dose rate, BW 70 kg; for CLhep: QL 1500000 uL/min; for Fub: fub=fup/(B:P), Fub set to 1 if needed; for CLint: scaled to whole liver: HPGL 110 mill cells/g, Vl 1596 g
In short: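 Human Css estimated by IVIVE: plasma protein binding converted to blood fraction unbound via blood-to-plasma partitioning, and experimental Clint scaled with liver scalars to whole liver clearance. AEDs then derived by reverse dosimetry from Css and PFAS in vitro POD, defined as fifth-percentile AC50.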

[4] = tested on: plasma protein; conditions: cited from earlier work; for fup (fraction unbound in plasma): human plasma; for Mean fu: fraction unbound in plasma, input for IVIVE calculations
[5] = Administered equivalent dose (AED) by reverse dosimetry; design: species or system human; conditions: from Css and AC50 POD by reverse dosimetry
Experimental: IVIVE was performed as previously described to calculate human steady-state concentrations (Css). Briefly, experimental plasma protein binding data presented elsewhere were transformed to fraction unbound in blood using blood-to-plasma partitioning values. Experimental Clint values generated here are used in conjunction with relevant liver scalars to scale up to estimate whole liver clearance. […] Once Css values were established, these were used with the PFAS-specific in vitro POD data to calculate the administered equivalent doses (AEDs) using reverse dosimetry. […] The fifth-percentile AC50 value was used to define the in vitro POD. All relevant inputs, scalars, and calculations are provided in Supplementary Information, as indicated in the results.

[6] = tested on: pooled primary human hepatocyte suspensions; experiment: Bayesian (MCMC, invitroTKstats) analysis of hepatic clearance data; conditions: Level-4 Bayesian estimate, posterior median; Clint.1 series (Clint.10 all NA)
[7] = pooled human hepatocyte suspension, 1 μM

| SMILES | hepatocyte CLint at 1 μM ([1]; hepatocytes) [µL/min/1e6 cells] | In Vitro Clint [2, 7] [μL/min/million cells] | Unadj Clint [2] | Css [3] [µM] | fup (fraction unbound in plasma) [4] | AED [5] [mg/kg/day] | CLint for HTTK [2] | CLint ([2]; Table 2, pooled human hepatocyte suspension, 1 μM, 0-240 min, 0 = slope not significant (p>0.05)) [μL/min/million cells] | in vitro CLint exp assay [2] | Css (mg/L) [3] [mg/L] | Css (uM) [3] [µM] | CLhep [3] [L/h] | Fub [3] | CLint [3] [µL/min] | Clint.1.Med [6] | hepatocyte CLint at 1 μM ([1]; cryopreserved pooled primary human hepatocyte suspensions) [µL/min/1e6 cells] | Mean fu [4] |
| --- | --- | --- | --- | --- | --- | --- | --- | --- | --- | --- | --- | --- | --- | --- | --- | --- | --- |
| O=S(=O)(O)CCC(F)(F)C(F)(F)C(F)(F)C(F)(F)F [4:2 FTS, 4:2 Fluorotelomer sulfonic acid] | 4.28 | 4.28 | 4.28 | 19.12 | 0.0050 | – | – | – | – | – | – | – | – | – | – | – | – |
| O=S(=O)(O)CCC(F)(F)C(F)(F)C(F)(F)C(F)(F)C(F)(F)C(F)(F)F [6:2 FTS, 6:2 Fluorotelomer sulfonic acid] | 1.4 | 1.4 | 1.40 | 12.36 | 0.0143 | 0.89 | – | – | – | – | – | – | – | – | – | – | – |
| O=C(O)CCC(F)(F)C(F)(F)C(F)(F)C(F)(F)C(F)(F)C(F)(F)F [6:3 FTCA, 6:3 Fluorotelomer carboxylic acid] | – | 5.05 | – | 30.01 | 0.0023 | 0.18 | 5.05 | 5.05 | 5.05 | 11.76 | 30.01 | 0.222 | 0.004182 | 886578 | 0 | – | – |
| O=S(=O)(O)CCC(F)(F)C(F)(F)C(F)(F)C(F)(F)C(F)(F)C(F)(F)C(F)(F)C(F)(F)F [8:2 FTS, 8:2 Fluorotelomer sulfonic acid] | – | – | 1.53 | – | – | – | – | – | – | – | – | – | – | – | – | 1.53 | – |
| O=C(O)C(F)(F)C(F)(F)C(F)(F)C(F)(F)C(F)(F)C(F)(F)C(F)F [8H-PFOA, 8H-Perfluorooctanoic acid] | – | – | 0.00 | 290.23 | 0.0021 | 0.04 | – | – | – | – | – | – | – | – | 0 | – | – |
| O=C(O)C(F)(F)C(F)(F)C(F)(F)C(F)(F)C(F)(F)C(F)(F)C(F)(F)C(F)F [9H-PFNA, 9-H-Perfluorononanoic acid] | – | – | 0.00 | 601.28 | 0.0009 | 0.004 | – | – | – | – | – | – | – | – | – | – | – |
| O=C(O)C(F)(F)C(F)(F)C(F)(F)C(F)(F)C(F)(F)C(F)(F)C(F)(F)C(F)(F)C(F)(F)C(F)F [11H-PFUnDA, 11-H-Perfluoroundecanoic acid] | – | – | 0.00 | 294.69 | 0.0015 | 0.03 | – | – | – | – | – | – | – | – | – | – | – |
| O=C(O)C(F)(F)C(F)(F)C(F)(F)C(F)(F)C(F)(F)C(F)(F)C(F)(F)C(F)(F)C(F)(F)F [PFDA, Perfluorodecanoic acid] | – | – | 0.00 | 173.91 | 0.0027 | 0.06 | – | – | – | – | – | – | – | – | – | – | – |
| O=C(O)C(F)(F)C(F)(F)C(F)(F)C(F)(F)C(F)(F)C(F)(F)F [PFHpA, Perfluoroheptanoic acid] | – | – | 3.12 | 1657.68 | 0.0004 | 0.01 | – | – | – | – | – | – | – | – | – | – | – |
| O=S(=O)(O)C(F)(F)C(F)(F)C(F)(F)C(F)(F)C(F)(F)C(F)(F)C(F)(F)F [PFHpS, Perfluoroheptanesulfonic acid] | – | – | 1.23 | 893.98 | 0.0006 | 0.02 | – | – | – | – | – | – | – | – | – | – | – |
| O=C(O)C(F)(F)C(F)(F)C(F)(F)C(F)(F)C(F)(F)F [PFHxA, Perfluorohexanoic acid] | – | – | 1.62 | 113.04 | 0.0068 | 0.08 | – | – | – | – | – | – | – | – | – | – | – |
| O=S(=O)(O)C(F)(F)C(F)(F)C(F)(F)C(F)(F)C(F)(F)C(F)(F)F [PFHxS, Perfluorohexanesulfonic acid] | – | – | 1.52 | 670.49 | 0.0009 | 0.033 | – | – | – | – | – | – | – | – | – | – | – |
| O=C(O)C(F)(F)C(F)(F)C(F)(F)C(F)(F)C(F)(F)C(F)(F)C(F)(F)C(F)(F)F [PFNA, Perfluorononanoic acid] | – | – | 0.83 | 325.11 | 0.0016 | 0.05 | – | – | – | – | – | – | – | – | – | – | – |
| O=C(O)C(F)(F)C(F)(F)C(F)(F)OC(F)(C(F)(F)F)C(F)(F)F [PFPE-1, Perfluoro-4-isopropoxybutanoic acid] | 5.78 | – | 5.78 | – | – | – | – | – | – | – | – | – | – | – | – | – | – |
| O=C(O)C(F)(F)C(F)(F)C(F)(F)C(F)(F)C(F)(F)C(F)(F)C(F)(F)C(F)(F)C(F)(F)F [Perfluorodecanoic acid (PFDA)] | – | – | – | – | – | – | 0 | – | 0 | 89.39 | 173.91 | 0.000 | 0.004909 | 0 | 0 | – | 0.0027 |
| O=C(O)C(F)(F)C(F)(F)C(F)(F)C(F)(F)C(F)(F)C(F)(F)F [Perfluoroheptanoic acid (PFHpA)] | – | – | – | – | – | – | 0 | – | 3.12 | 603.36 | 1657.68 | 0.000 | 0.0007273 | 0 | 0 | – | 0.0004 |
| O=C(O)C(F)(F)C(F)(F)C(F)(F)C(F)(F)C(F)(F)F [Perfluorohexanoic acid (PFHxA)] | – | – | – | – | – | – | 0 | – | 1.62 | 35.49 | 113.04 | 0.000 | 0.01236 | 0 | 0 | – | 0.0068 |
| O=C(O)C(F)(F)C(F)(F)C(F)(F)C(F)(F)C(F)(F)C(F)(F)C(F)(F)C(F)(F)C(F)(F)C(F)(F)F [Perfluoroundecanoic acid (PFUnDA)] | – | – | – | – | – | – | 0 | – | 0 | 20.81 | 36.89 | 0.000 | 0.02109 | 0 | 0 | – | 0.0116 |
| O=C([O-])C(F)(F)C(F)(F)C(F)(F)C(F)(F)C(F)(F)C(F)(F)C(F)(F)F.[K+] [Potassium perfluorooctanoate (KPFOA)] | – | – | – | – | – | – | 0 | – | 0 | 134.08 | 323.88 | 0.000 | 0.003273 | 0 | 0 | – | 0.0018 |
| O=C([O-])C(F)(F)C(F)(F)C(F)(F)C(F)(F)C(F)(F)C(F)(F)C(F)(F)F.[Na+] [Sodium perfluorooctanoate (NaPFOA)] | – | – | – | – | – | – | 0 | – | 0 | 402.24 | 971.65 | 0.000 | 0.001091 | 0 | 0 | – | 0.0006 |
